The experiment deals with T1, SHP2 (Homo sapiens, UniProt Q06124).
T1 sequence (Q06124 1-593): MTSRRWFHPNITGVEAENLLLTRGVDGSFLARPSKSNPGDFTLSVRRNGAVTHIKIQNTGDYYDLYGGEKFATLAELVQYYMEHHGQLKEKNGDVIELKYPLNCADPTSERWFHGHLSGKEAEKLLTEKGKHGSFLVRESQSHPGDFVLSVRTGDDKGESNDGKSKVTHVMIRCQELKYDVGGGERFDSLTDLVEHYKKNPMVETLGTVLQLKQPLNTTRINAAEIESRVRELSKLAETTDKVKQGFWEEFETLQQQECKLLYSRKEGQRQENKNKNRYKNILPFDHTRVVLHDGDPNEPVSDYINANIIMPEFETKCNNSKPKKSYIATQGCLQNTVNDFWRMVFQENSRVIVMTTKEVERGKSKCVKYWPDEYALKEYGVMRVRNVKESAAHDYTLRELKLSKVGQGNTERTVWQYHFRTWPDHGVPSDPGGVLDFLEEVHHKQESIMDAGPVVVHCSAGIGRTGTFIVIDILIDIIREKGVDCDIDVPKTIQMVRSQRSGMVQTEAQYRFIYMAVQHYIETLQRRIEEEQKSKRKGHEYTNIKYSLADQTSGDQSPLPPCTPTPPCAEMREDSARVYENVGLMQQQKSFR
In words: SHP2 allosteric inhibitor enzyme activity assay (DiFMUP fluorescence). The class given is biochemical. Conditions: class symbols. Put shortly:
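SHP2 activated by 0.5 μM IRS1_pY1172(dPEG8)pY1222 peptide, 0.2 ng enzyme per well, 1 h at room temperature with compound (1 μM top, 3-fold series), then DiFMUP substrate 1 h. Buffer: 60 mM HEPES, 75 mM NaCl, 75 mM KCl, 0.05% BRIJ-35, 1 mM EDTA, 5 mM DTT. Fluorescence ex 340/em 450 nm; IC50 by variable-slope fit.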
As usually defined, the IC50 is the concentration needed to halve the response being measured. A high value points to lower potency. `C[C@@H]1OCC2(CCN(c3nc4[nH]nc(C5(c6ccc(C(F)(F)F)cc6)CC5)c4c(=O)[nH]3)CC2)[C@@H]1N` [Example 296, 6-((3S,4S)-4-amino-3-methyl-2-oxa-8-azaspiro[4.5]decan-8-yl)-3-(1-(4-(trifluoromethyl)phenyl)cyclopropyl)-1,5-dihydro-4H-pyrazolo[3,4-d]pyrimidin-4-one]: the IC50 is greater than 60 nM. The compound `C[C@@H]1OCC2(CCN(c3nc4[nH]nc(C5(c6cccc(C(F)(F)F)c6)CC5)c4c(=O)[nH]3)CC2)[C@@H]1N` [Example 297, 6-((3S,4S)-4-amino-3-methyl-2-oxa-8-azaspiro[4.5]decan-8-yl)-3-(1-(3-(trifluoromethyl)phenyl)cyclopropyl)-1,5-dihydro-4H-pyrazolo[3,4-d]pyrimidin-4-one] had an IC50 of 20 to 60 nM.

The compound `C[C@@H]1OCC2(CCN(c3nc4[nH]nc(C5(c6ccccc6C(F)(F)F)CC5)c4c(=O)[nH]3)CC2)[C@@H]1N` [Example 298, 6-((3S,4S)-4-amino-3-methyl-2-oxa-8-azaspiro[4.5]decan-8-yl)-3-(1-(2-(trifluoromethyl)phenyl)cyclopropyl)-1,5-dihydro-4H-pyrazolo[3,4-d]pyrimidin-4-one] showed an IC50 greater than 60 nM. In the case of `C[C@@H]1OCC2(CCN(c3nc4[nH]nc(C5(c6ccc(N)cc6)CC5)c4c(=O)[nH]3)CC2)[C@@H]1N` [Example 299, 6-((3S,4S)-4-amino-3-methyl-2-oxa-8-azaspiro[4.5]decan-8-yl)-3-(1-(4-aminophenyl)cyclopropyl)-1,5-dihydro-4H-pyrazolo[3,4-d]pyrimidin-4-one] it was 20 to 60 nM. With `Cc1ccc(C2(c3n[nH]c4nc(N5CCC6(CC5)CO[C@@H](C)[C@H]6N)[nH]c(=O)c34)CC2)cc1` [Example 300, 6-((3S,4S)-4-amino-3-methyl-2-oxa-8-azaspiro[4.5]decan-8-yl)-3-(1-(p-tolyl)cyclopropyl)-1,5-dihydro-4H-pyrazolo[3,4-d]pyrimidin-4-one] the figure was 20 to 60 nM; with `Cc1cccc(C2(c3n[nH]c4nc(N5CCC6(CC5)CO[C@@H](C)[C@H]6N)[nH]c(=O)c34)CC2)c1` [Example 301, 6-((3S,4S)-4-amino-3-methyl-2-oxa-8-azaspiro[4.5]decan-8-yl)-3-(1-(m-tolyl)cyclopropyl)-1,5-dihydro-4H-pyrazolo[3,4-d]pyrimidin-4-one], 20 to 60 nM. In the case of `Cc1ccccc1C1(c2n[nH]c3nc(N4CCC5(CC4)CO[C@@H](C)[C@H]5N)[nH]c(=O)c23)CC1` [Example 302, 6-((3S,4S)-4-amino-3-methyl-2-oxa-8-azaspiro[4.5]decan-8-yl)-3-(1-(o-tolyl)cyclopropyl)-1,5-dihydro-4H-pyrazolo[3,4-d]pyrimidin-4-one] it was 20 to 60 nM; in that of `CCOC(=O)Nc1ccc(C2(c3n[nH]c4nc(N5CCC6(CC5)CO[C@@H](C)[C@H]6N)[nH]c(=O)c34)CC2)cc1` [Example 303, ethyl(4-(1-(6-((3S,4S)-4-amino-3-methyl-2-oxa-8-azaspiro[4.5]decan-8-yl)-4-oxo-4,5-dihydro-1H-pyrazolo[3,4-d]pyrimidin-3-yl)cyclopropyl)phenyl)carbamate], 20 to 60 nM. As for `COc1ccc(C2(c3n[nH]c4nc(N5CCC6(CC5)CO[C@@H](C)[C@H]6N)[nH]c(=O)c34)CC2)cc1` [Example 304, 6-((3S,4S)-4-amino-3-methyl-2-oxa-8-azaspiro[4.5]decan-8-yl)-3-(1-(4-methoxyphenyl)cyclopropyl)-1,5-dihydro-4H-pyrazolo[3,4-d]pyrimidin-4-one], the IC50 lay in the range of 20 to 60 nM. In the case of `COc1cccc(C2(c3n[nH]c4nc(N5CCC6(CC5)CO[C@@H](C)[C@H]6N)[nH]c(=O)c34)CC2)c1` [Example 305, 6-((3S,4S)-4-amino-3-methyl-2-oxa-8-azaspiro[4.5]decan-8-yl)-3-(1-(3-methoxyphenyl)cyclopropyl)-1,5-dihydro-4H-pyrazolo[3,4-d]pyrimidin-4-one] it was 20 to 60 nM; in that of `COc1ccccc1C1(c2n[nH]c3nc(N4CCC5(CC4)CO[C@@H](C)[C@H]5N)[nH]c(=O)c23)CC1` [Example 306, 6-((3S,4S)-4-amino-3-methyl-2-oxa-8-azaspiro[4.5]decan-8-yl)-3-(1-(2-methoxyphenyl)cyclopropyl)-1,5-dihydro-4H-pyrazolo[3,4-d]pyrimidin-4-one], 20 to 60 nM.

For the compound `C[C@@H]1OCC2(CCN(c3nc4[nH]nc(C5(c6ccc(OC(F)(F)F)cc6)CC5)c4c(=O)[nH]3)CC2)[C@@H]1N` [Example 307, 6-((3S,4S)-4-amino-3-methyl-2-oxa-8-azaspiro[4.5]decan-8-yl)-3-(1-(4-(trifluoromethoxy)phenyl)cyclopropyl)-1,5-dihydro-4H-pyrazolo[3,4-d]pyrimidin-4-one], the IC50 is 20 to 60 nM. In the case of `C[C@@H]1OCC2(CCN(c3nc4[nH]nc(C5(c6ccc7c(c6)OC(F)(F)O7)CC5)c4c(=O)[nH]3)CC2)[C@@H]1N` [Example 308, 6-((3S,4S)-4-amino-3-methyl-2-oxa-8-azaspiro[4.5]decan-8-yl)-3-(1-(2,2-difluorobenzo[d][1,3]dioxol-5-yl)cyclopropyl)-1,5-dihydro-4H-pyrazolo[3,4-d]pyrimidin-4-one] it was greater than 60 nM; in that of `C[C@@H]1OCC2(CCN(c3nc4[nH]nc(C5(c6cccc(Cl)c6Cl)CC5)c4c(=O)[nH]3)CC2)[C@@H]1N` [Example 309, 6-((3S,4S)-4-amino-3-methyl-2-oxa-8-azaspiro[4.5]decan-8-yl)-3-(1-(2,3-dichlorophenyl)cyclopropyl)-1,5-dihydro-4H-pyrazolo[3,4-d]pyrimidin-4-one], 20 to 60 nM; in that of `C[C@@H]1OCC2(CCN(c3nc4[nH]nc(C5(c6cccc(O)c6)CC5)c4c(=O)[nH]3)CC2)[C@@H]1N` [Example 310, 6-((3S,4S)-4-amino-3-methyl-2-oxa-8-azaspiro[4.5]decan-8-yl)-3-(1-(3-hydroxyphenyl)cyclopropyl)-1,5-dihydro-4H-pyrazolo[3,4-d]pyrimidin-4-one], 20 to 60 nM. Compound `C[C@@H]1OCC2(CCN(c3nc4[nH]nc(C5(c6ccc(O)cc6)CC5)c4c(=O)[nH]3)CC2)[C@@H]1N` [Example 311, 6-((3S,4S)-4-amino-3-methyl-2-oxa-8-azaspiro[4.5]decan-8-yl)-3-(1-(4-hydroxyphenyl)cyclopropyl)-1,5-dihydro-4H-pyrazolo[3,4-d]pyrimidin-4-one] showed a half-maximal inhibitory concentration (IC50) of 20 to 60 nM. With `C[C@@H]1OCC2(CCN(c3nc4[nH]nc(C5(c6ccc(Cl)cc6Cl)CC5)c4c(=O)[nH]3)CC2)[C@@H]1N` [Example 313, 6-((3S,4S)-4-amino-3-methyl-2-oxa-8-azaspiro[4.5]decan-8-yl)-3-(1-(2,4-dichlorophenyl)cyclopropyl)-1,5-dihydro-4H-pyrazolo[3,4-d]pyrimidin-4-one] the figure was greater than 60 nM.

Compound `C[C@@H]1OCC2(CCN(c3nc4[nH]nc(C5(c6cccc(-n7cccn7)c6)CC5)c4c(=O)[nH]3)CC2)[C@@H]1N` [Example 314, 3-(1-(3-(1H-pyrazol-1-yl)phenyl)cyclopropyl)-6-((3S,4S)-4-amino-3-methyl-2-oxa-8-azaspiro[4.5]decan-8-yl)-1,5-dihydro-4H-pyrazolo[3,4-d]pyrimidin-4-one] yielded a 50% inhibitory concentration (IC50) greater than 60 nM. With `C[C@@H]1OCC2(CCN(c3nc4[nH]nc(C5(c6ccc(C#N)cc6)CC5)c4c(=O)[nH]3)CC2)[C@@H]1N` [Example 315, 4-(1-(6-((3S,4S)-4-amino-3-methyl-2-oxa-8-azaspiro[4.5]decan-8-yl)-4-oxo-4,5-dihydro-1H-pyrazolo[3,4-d]pyrimidin-3-yl)cyclopropyl)benzonitrile] the figure was 20 to 60 nM; with `CC(=O)c1cccc(C2(c3n[nH]c4nc(N5CCC6(CC5)CO[C@H](C)[C@@H]6N)[nH]c(=O)c34)CC2)c1` [Example 316, 3-(1-(3-acetylphenyl)cyclopropyl)-6-((3R,4R)-4-amino-3-methyl-2-oxa-8-azaspiro[4.5]decan-8-yl)-1,5-dihydro-4H-pyrazolo[3,4-d]pyrimidin-4-one], 20 to 60 nM.

As for `C[C@@H]1OCC2(CCN(c3nc4[nH]nc(C5(c6cccc(Br)c6)CC5)c4c(=O)[nH]3)CC2)[C@@H]1N` [Example 317, 6-((3S,4S)-4-amino-3-methyl-2-oxa-8-azaspiro[4.5]decan-8-yl)-3-(1-(3-bromophenyl)cyclopropyl)-1,5-dihydro-4H-pyrazolo[3,4-d]pyrimidin-4-one], the concentration for half-maximal inhibition (IC50) lay in the range of 20 to 60 nM. In the case of `Cc1csc(C2(c3n[nH]c4nc(N5CCC6(CC5)CO[C@@H](C)[C@H]6N)[nH]c(=O)c34)CC2)n1` [Example 318, 6-((3S,4S)-4-amino-3-methyl-2-oxa-8-azaspiro[4.5]decan-8-yl)-3-(1-(4-methylthiazol-2-yl)cyclopropyl)-1,5-dihydro-4H-pyrazolo[3,4-d]pyrimidin-4-one] it was 20 to 60 nM; in that of `Cc1cccc(C2(c3n[nH]c4nc(N5CCC6(CC5)CO[C@@H](C)[C@H]6N)[nH]c(=O)c34)CC2)n1` [Example 319, 6-((3S,4S)-4-amino-3-methyl-2-oxa-8-azaspiro[4.5]decan-8-yl)-3-(1-(6-methylpyridin-2-yl)cyclopropyl)-1,5-dihydro-4H-pyrazolo[3,4-d]pyrimidin-4-one], greater than 60 nM.

The values are drawn from US20230192705A1, “SHP2 INHIBITORS, COMPOSITIONS AND USES THEREOF” (Betta Pharmaceuticals Co., Ltd, priority 2020, published 2023).
